# Test results from PubChem BioAssay (NCI).
#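 Cultured in 96-well plates, cells were exposed to test compound for 48 hours across five concentrations. TGI is the concentration that stops growth completely.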
# How the values were obtained:
# Test in all cases: growth of human tumour cells (NCI), 48 h
# [1] = tested on: 786-0 renal
# [2] = tested on: A498 renal
# [3] = tested on: A549 NSCLC
# [4] = tested on: ACHN renal
# [5] = tested on: CAKI-1 renal
# [6] = tested on: CCRF-CEM leukemia
# [7] = tested on: DMS 273 small cell lung
# [8] = tested on: EKVX NSCLC
# [9] = tested on: HCC-2998 colon
# [10] = tested on: HCT-116 colon
# [11] = tested on: HCT-15 colon
# [12] = tested on: HL-60(TB) leukemia
# [13] = tested on: HOP-62 NSCLC
# [14] = tested on: HOP-92 NSCLC
# [15] = tested on: HT29 colon
# [16] = tested on: IGROV1 ovarian
# [17] = tested on: K-562 leukemia
# [18] = tested on: KM12 colon
# [19] = tested on: LOX IMVI melanoma
# [20] = tested on: LXFL 529 NSCLC
# [21] = tested on: M14 melanoma
# [22] = tested on: MOLT-4 leukemia
# [23] = tested on: NCI-H226 lung
# [24] = tested on: NCI-H23 lung
# [25] = tested on: NCI-H460 lung
# [26] = tested on: NCI-H522 lung
# [27] = tested on: OVCAR-5 ovarian
# [28] = tested on: OVCAR-8 ovarian
# [29] = tested on: RXF 393 renal
# [30] = tested on: SF-268 CNS
# [31] = tested on: SF-295 CNS
# [32] = tested on: SF-539 CNS
# [33] = tested on: SK-MEL-2 melanoma
# [34] = tested on: SK-MEL-28 melanoma
# [35] = tested on: SK-MEL-5 melanoma
# [36] = tested on: SK-OV-3 ovarian
# [37] = tested on: SN12C renal
# [38] = tested on: SNB-19 CNS
# [39] = tested on: SNB-78 CNS
# [40] = tested on: SR leukemia
# [41] = tested on: SW-620 colon
# [42] = tested on: TK-10 renal
# [43] = tested on: U251 CNS
# [44] = tested on: UACC-257 melanoma
# [45] = tested on: UACC-62 melanoma
# [46] = tested on: UO-31 renal
# [47] = tested on: XF 498 CNS
# [48] = tested on: BT-549 breast
# [49] = tested on: COLO 205 colon
# [50] = tested on: DU-145 prostate
# [51] = tested on: HS 578T breast
# [52] = tested on: MALME-3M melanoma
# [53] = tested on: MCF7 breast
# [54] = tested on: MDA-MB-231 breast
# [55] = tested on: MDA-MB-435
# [56] = tested on: MDA-N
# [57] = tested on: NCI/ADR-RES ovarian
# [58] = tested on: OVCAR-3 ovarian
# [59] = tested on: OVCAR-4 ovarian
# [60] = tested on: PC-3 prostate
# [61] = tested on: RPMI-8226 leukemia
# [62] = tested on: SNB-75 CNS
# [63] = tested on: T-47D breast
# [64] = tested on: DLD-1 colon
# [65] = tested on: DMS 114 small cell lung
# [66] = tested on: HOP-18 NSCLC
# [67] = tested on: M19-MEL melanoma
# [68] = tested on: RXF-631 renal
# [69] = tested on: KM20L2 colon
smiles,measurement,setting,value
C[N+](C)=c1nc(N2CCOCC2)ss1,TGI,[1],> 100 µM
same,TGI,[2],> 100 µM
same,TGI,[3],> 100 µM
same,TGI,[4],> 100 µM
same,TGI,[5],> 100 µM
same,TGI,[6],> 100 µM
same,TGI,[7],> 100 µM
same,TGI,[8],> 100 µM
same,TGI,[9],> 100 µM
same,TGI,[10],> 100 µM
same,TGI,[11],> 100 µM
same,TGI,[12],> 100 µM
same,TGI,[13],> 100 µM
same,TGI,[14],> 100 µM
same,TGI,[15],> 100 µM
same,TGI,[16],> 100 µM
same,TGI,[17],> 100 µM
same,TGI,[18],> 100 µM
same,TGI,[19],> 100 µM
same,TGI,[20],> 100 µM
same,TGI,[21],> 100 µM
same,TGI,[22],> 100 µM
same,TGI,[23],> 100 µM
same,TGI,[24],> 100 µM
same,TGI,[25],> 100 µM
same,TGI,[26],> 100 µM
same,TGI,[27],> 100 µM
same,TGI,[28],> 100 µM
same,TGI,[29],> 100 µM
same,TGI,[30],> 100 µM
same,TGI,[31],> 100 µM
same,TGI,[32],> 100 µM
same,TGI,[33],> 100 µM
same,TGI,[34],> 100 µM
same,TGI,[35],> 100 µM
same,TGI,[36],> 100 µM
same,TGI,[37],> 100 µM
same,TGI,[38],> 100 µM
same,TGI,[39],> 100 µM
same,TGI,[40],> 100 µM
same,TGI,[41],> 100 µM
same,TGI,[42],> 100 µM
same,TGI,[43],> 100 µM
same,TGI,[44],> 100 µM
same,TGI,[45],> 100 µM
same,TGI,[46],> 100 µM
same,TGI,[47],> 100 µM
CC1=C2NCN(C)N=C2C(C#N)(C#N)C1(C#N)C#N,TGI,[1],37.7 µM
same,TGI,[2],> 100 µM
same,TGI,[3],> 100 µM
same,TGI,[4],33 µM
same,TGI,[48],44.5 µM
same,TGI,[5],17.9 µM
same,TGI,[6],7.86 µM
same,TGI,[49],19.9 µM
same,TGI,[50],> 75 µM
same,TGI,[8],> 57.3 µM
same,TGI,[9],44.4 µM
same,TGI,[10],57.4 µM
same,TGI,[11],40.5 µM
same,TGI,[12],4.84 µM
same,TGI,[13],> 100 µM
same,TGI,[14],32 µM
same,TGI,[51],> 96.3 µM
same,TGI,[15],51.3 µM
same,TGI,[16],> 63 µM
same,TGI,[17],> 100 µM
same,TGI,[18],> 100 µM
same,TGI,[19],> 54.4 µM
same,TGI,[21],> 66.4 µM
same,TGI,[52],44.2 µM
same,TGI,[53],> 70.7 µM
same,TGI,[54],36.2 µM
same,TGI,[55],46.6 µM
same,TGI,[56],30 µM
same,TGI,[22],9.87 µM
same,TGI,[23],> 100 µM
same,TGI,[24],21.4 µM
same,TGI,[26],28.5 µM
same,TGI,[57],> 68.5 µM
same,TGI,[58],66.8 µM
same,TGI,[59],34.8 µM
same,TGI,[27],> 91.7 µM
same,TGI,[28],> 58.2 µM
same,TGI,[60],72.8 µM
same,TGI,[61],37.3 µM
same,TGI,[29],42.7 µM
same,TGI,[30],> 76.6 µM
same,TGI,[31],> 100 µM
same,TGI,[32],64.4 µM
same,TGI,[33],> 100 µM
same,TGI,[34],49.9 µM
same,TGI,[35],> 71.4 µM
same,TGI,[36],> 100 µM
same,TGI,[37],34.9 µM
same,TGI,[38],> 95.2 µM
same,TGI,[62],> 87.9 µM
same,TGI,[40],35.8 µM
same,TGI,[41],42.2 µM
same,TGI,[63],59 µM
same,TGI,[42],31 µM
same,TGI,[43],> 76.9 µM
same,TGI,[44],33.9 µM
same,TGI,[45],46.8 µM
same,TGI,[46],36.7 µM
c1ccc(NC[Si]23OCCN(CCO2)CCO3)cc1,TGI,[1],> 100 µM
same,TGI,[2],> 100 µM
same,TGI,[3],> 100 µM
same,TGI,[4],> 100 µM
same,TGI,[5],> 100 µM
same,TGI,[6],> 100 µM
same,TGI,[49],> 100 µM
same,TGI,[64],> 100 µM
same,TGI,[65],> 100 µM
same,TGI,[7],> 100 µM
same,TGI,[8],> 100 µM
same,TGI,[9],> 100 µM
same,TGI,[10],> 100 µM
same,TGI,[66],> 100 µM
same,TGI,[14],> 100 µM
same,TGI,[15],> 100 µM
same,TGI,[16],> 100 µM
same,TGI,[17],> 100 µM
same,TGI,[18],> 100 µM
same,TGI,[20],> 100 µM
same,TGI,[67],> 100 µM
same,TGI,[52],> 100 µM
same,TGI,[22],> 100 µM
same,TGI,[23],> 100 µM
same,TGI,[24],> 100 µM
same,TGI,[25],> 100 µM
same,TGI,[26],> 100 µM
same,TGI,[58],> 100 µM
same,TGI,[27],> 100 µM
same,TGI,[28],> 100 µM
same,TGI,[61],> 100 µM
same,TGI,[29],> 100 µM
same,TGI,[68],> 100 µM
same,TGI,[30],> 100 µM
same,TGI,[31],> 100 µM
same,TGI,[32],> 100 µM
same,TGI,[33],> 100 µM
same,TGI,[34],> 100 µM
same,TGI,[35],> 100 µM
same,TGI,[36],> 100 µM
same,TGI,[37],> 100 µM
same,TGI,[38],> 100 µM
same,TGI,[62],> 100 µM
same,TGI,[39],> 100 µM
same,TGI,[40],> 100 µM
same,TGI,[41],> 100 µM
same,TGI,[42],> 100 µM
same,TGI,[43],> 100 µM
same,TGI,[44],> 100 µM
same,TGI,[45],> 100 µM
same,TGI,[46],> 100 µM
CCOC(=O)C[C@@]12CCCNC1(C)CCc1ccccc12 (some centres undefined),TGI,[1],> 100 µM
same,TGI,[3],> 100 µM
same,TGI,[4],> 100 µM
same,TGI,[6],> 100 µM
same,TGI,[49],> 100 µM
same,TGI,[64],> 100 µM
same,TGI,[65],> 100 µM
same,TGI,[7],> 100 µM
same,TGI,[8],> 100 µM
same,TGI,[10],> 100 µM
same,TGI,[11],> 100 µM
same,TGI,[12],> 100 µM
same,TGI,[66],> 100 µM
same,TGI,[13],> 100 µM
same,TGI,[15],> 100 µM
same,TGI,[16],> 100 µM
same,TGI,[17],> 100 µM
same,TGI,[18],> 100 µM
same,TGI,[69],> 100 µM
same,TGI,[19],> 100 µM
same,TGI,[21],> 100 µM
same,TGI,[67],> 100 µM
same,TGI,[52],> 100 µM
same,TGI,[22],> 100 µM
same,TGI,[23],> 100 µM
same,TGI,[25],> 100 µM
same,TGI,[58],> 100 µM
same,TGI,[28],> 100 µM
same,TGI,[61],> 100 µM
same,TGI,[31],> 100 µM
same,TGI,[32],> 100 µM
same,TGI,[33],> 100 µM
same,TGI,[35],> 100 µM
same,TGI,[36],> 100 µM
same,TGI,[37],> 100 µM
same,TGI,[38],> 100 µM
same,TGI,[41],> 100 µM
same,TGI,[42],> 100 µM
same,TGI,[43],> 100 µM
same,TGI,[44],> 100 µM
same,TGI,[45],> 100 µM
same,TGI,[46],> 100 µM
same,TGI,[47],> 100 µM
